How the values were obtained:
PPARγ [1] = assay: PPARγ efficacy score from expression of the 22-probe efficacy-related gene population in cultured 3T3L1 adipocytes; type: cell-based, mouse; settings: mean over 22 probes of logRatio divided by template logRatio, template = average of Rosiglitazone and {2-[2-(4-phenoxy-2-propylphenoxy)ethyl]-1H-indol-5-yl}acetic acid
Experimental: Twenty four hours after the cells were contacted with one or other of the foregoing agents the cells were harvested and RNA extracted therefrom.
Thus, an efficacy value a PPARγ agonist, or partial agonist, was calculated in the following manner. […] This mean value was the PPARγ efficacy value for the PPARγ agonist, or partial agonist.
A chi-square fitting was also used to calculate the efficacy value for each tested PPARγ agonist, or partial agonist. The chi-square fitting formula used was: [formula]
Where Ri, σRi stand for the logRatio and error for logRatio of the full template. Xi and σXi stand for the logRatio and error for logRatio of the testing compound.
A PPARα agonist was included as a control.

PPARγ [2] = assay: PPARγ classifier value from expression of the 303-probe classifier gene population in 3T3L1 adipocyte cell line; type: cell-based, mouse; settings: Phase 3, high dosage (30×EC50), mean over 303 probes of logRatio divided by template logRatio, template = average of two full agonists (Group 1)
Experimental: The overall experiment was conducted in three phases (i.e., in three separate experiments conducted at three different times) as shown in Table 11 below. Three replicates were done for each of the tested compounds in each phase of the experiment.
The other PPARγ agonist, and partial agonist, compounds were used in testing the classifier population of genes. […] The PPARα agonist was included as a control.
The three replicate gene expression profiles within each phase of the experiment were first combined based on the error-weighted average. Expression profiles of two PPARγ full agonists, and four PPARγ partial agonists (in Phase 1) were chosen for classifier training, and were divided into the following two groups:
Group 1: two PPARγ full agonists (5-(4-{2-[methyl(pyridin-2-yl)amino]ethoxy} benzyl)-1,3-thiazolidine-2,4-dione and 5-{4-[2-hydroxy-2-(5-methyl-2-phenyl-1,3-oxazol-4-yl)ethoxy]benzyl}-1,3-thiazolidine-2,4-dione)
The Matlab function ANOVA1 (one-way analysis of variance) was used to calculate the pvalue (hereafter referred to as the ANOVA-pvalue) for the null hypothesis that the means of Group 1 and Group 2 are equal.

| Structure (SMILES) | Efficacy Score (PPARγ [1]) | Classifier Value (PPARγ [2]) |
| --- | --- | --- |
| CCCc1cc(Oc2ccccc2)ccc1OCCc1cc2cc(CC(=O)O)ccc2[nH]1 [Agonist 1, {2-[2-(4-phenoxy-2-propylphenoxy)ethyl]-1H-indol-5-yl}acetic acid] | 1.033 | 0.881 |
| CN(CCOc1ccc(CC2SC(=O)NC2=O)cc1)c1ccccn1 (stereo not shown) [Rosiglitazone, 5-(4-{2-[methyl(pyridin-2-yl)amino]ethoxy}benzyl)-1,3-thiazolidine-2,4-dione] | 0.967 | 0.850 |
